The results in this text go back to paper PMC5610748, “Evaluation of Novel α-(Acyloxy)-α-(Quinolin-4-yl) Acetamides as Antiplasmodial Agents” (Iranian Journal of Pharmaceutical Research : IJPR, 2017).

Like-named read-outs stand apart in the source and are kept apart here.

Experiment [1] concerns P. falciparum 3D7 chloroquine-sensitive strain. In words: In-vitro antiplasmodial test (Giemsa-stained smears). The format is cell-based, Plasmodium falciparum. The settings on record: read-out: P. falciparum IC50. The protocol: The P. falciparum 3D7 chloroquine-sensitive strain used throughout the study. In-vitro culture of P. falciparum was carried out according to the method described by previously ([12]-[14]). Briefly, parasites were cultured on human erythrocytes (blood group O^+), provided by the Blood Transfusion Organization (Zanjan, Iran), in RPMI 1640 medium completed with 5% of human AB^+ serum, 0.3 g/100 mL Albumax I, 25 mM HEPES, 19 mM sodium carbonate and 30 µg/mL gentamicin sulfate at pH 7.2. Type O^+ erythrocytes were washed three times with RPMI 1640 and stored at 4 °C.
Parasites were aerated in 25 mL flasks under 3% oxygen, 6% carbon dioxide and 91% nitrogen atmosphere. The medium was changed each day.
Pure compounds were dissolved in DMSO at concentration of 10 mg/mL and diluted with complete malaria culture medium to reach 1 mg/mL before use. Parasites were synchronized to the ring stage by sorbitol method described previously ([15]). From 2-fold dilution series (50-0.39 µg/mL) of compounds prepared in assay medium, 20 µL added to each well of 96-well microtiter plates in triplicate. One hundred eighty µL of synchronous P. falciparum culture (1% parasitemia, 2% hematocrit) added to each well reaching a final volume of 200 µL per well. […] Plates were incubated at 37 °C for 24 h. […] After 24 h incubation, Giemsa stained thin smears were made and parasitemia was confirmed by the numeration of 1000 erythrocytes per slide. Data acquired by counting the erythrocytes in Giemsa stain were imported in Microsoft Excel spreadsheet and IC50 values were calculated from dose-response curves.

The test system of experiment [2] is human hepatocellular carcinoma cell line (HepG2). In words: In-vitro cytotoxicity assay (MTT). The format is cell-based. The settings on record: HepG2 cells, 24 h incubation. The protocol: In drug discovery approaches against malaria, one of the important strategies is the safety of active compounds against human. So, the toxicity of active compounds against P. falciparum was assessed on human hepatocellular carcinoma cell line (HepG2) by using MTT (3-[4,5-dimethylthiazol-2-yl] -2,5 diphenyl tetrazolium bromide) assay ([16]-[17]). The cells were cultured in RPMI 1640 medium enriched with 10% FBS (Fetal Bovine Serum) and incubated at 37 °C with 5% CO2 and 96% humidity. After several subcultures, cells were distributed in 96-well plates at 4,000 cells in 100 µL of culture medium and incubated for 24 h at the same condition to allow attachment of cells to the bottom of wells. Then culture medium removed and 100 µL of two-fold serially diluted concentrations of drug (400-1.56 µg/mL) added to each well in triplicate. Microtiter plates further incubated for 24 h in the same condition. Culture medium without drug was used as negative control. After the incubation time, the drug containing medium discharged and for evaluation of cell survival, 25 µL of MTT solution (4 mg/mL in PBS) added to each well and plates incubated for 3 h (in same condition). Then 100 µL of DMSO added to each well and plates were gently shaken to dissolve the formed formazan crystals. The absorbance of each well measured at 540 nm using an ELISA plate reader (Infinite M200, Tecan). The GI% (Growth Inhibition percent) was calculated using the formula Growth Inhibition% = 100 – […], where ODtest is the mean absorbance of treated cells and ODcontrol is the mean absorbance of a negative control. The cell survival of control assumed 100% and IC50 values generated from dose-response curves for each cell line.

Setting [3] is: Plasmodium falciparum, 3D7 chloroquine-sensitive strain, ring-stage synchronized, 24 h incubation, parasitemia by Giemsa smears.
Setting [4] is: 3D7 chloroquine-sensitive strain, ring-stage synchronized, 24 h incubation, parasitemia by Giemsa smears.

In the case of `CCN(CC)CCCC(C)Nc1ccnc2cc(Cl)ccc12` (stereo not drawn) [CQ, Chloroquine, reference compound], in experiment [1] (Plasmodium falciparum, 3D7, 24 h), the IC50 was found to be 0.7 µM.

Regarding `Cc1cccc(C)c1NC(=O)C(OC(=O)c1ccc(C(C)(C)C)cc1)c1ccnc2ccccc12` (stereo not drawn) [Compound 20], the values for the IC50 in experiment [1] (setting [3]) and in experiment [2] (Homo sapiens) were 1.37 µM and 199 µM, respectively.

Turning to `CC(C)(C)NC(=O)C(OC(=O)c1cccc2ccccc12)c1ccnc2ccccc12` (stereo not drawn) [Compound 18], the IC50 in experiment [1] (setting [4]) came to 6.95 µM.

Turning to `CC(C)(C)NC(=O)C(OC(=O)c1ccccc1)c1ccnc2ccccc12` (stereo not drawn) [Compound 11], the IC50 in experiment [1] (setting [4]) came to 4.35 µM.

`Cc1cccc(C)c1NC(=O)C(OC(=O)c1ccccc1)c1ccnc2ccccc12` (stereo not drawn) [Compound 19]: the half-maximal inhibitory concentration (IC50) in experiment [1] (setting [4]) was 4.31 µM.

With `O=C(OC(C(=O)NC1CCCCC1)c1ccnc2ccccc12)c1ccc(Cl)cc1` (stereo not drawn) [Compound 4], in experiment [1] (setting [4]), the IC50 was 5.02 µM.

In the case of `O=C(OC(C(=O)NC1CCCCC1)c1ccnc2ccccc12)c1ccc(I)cc1` (stereo not drawn) [Compound 8], the IC50 in experiment [1] (setting [4]) turned out to be 3.5 µM.

Turning to `CC(C)(C)NC(=O)C(OC(=O)c1ccc(Cl)cc1)c1ccnc2ccccc12` (stereo not drawn) [Compound 13], the IC50 in experiment [1] (setting [4]) came to 5.85 µM.

As for `CC(C)(C)NC(=O)C(OC(=O)c1ccc(Br)cc1)c1ccnc2ccccc12` (stereo not drawn) [Compound 16], the IC50 in experiment [1] (setting [4]) worked out at 5.1 µM.

With `O=C(OC(C(=O)NC1CCCCC1)c1ccnc2ccccc12)c1ccccc1` (stereo not drawn) [Compound 1], the IC50 worked out at 1.51 µM in experiment [1] (setting [3]) and 230 µM in experiment [2] (Homo sapiens).

As to `CC(C)(C)NC(=O)C(OC(=O)c1ccc(C#N)cc1)c1ccnc2ccccc12` (stereo not drawn) [Compound 17], in experiment [1] (setting [4]), the IC50 stood at 3.08 µM.

For the compound `CC(C)(C)c1ccc(C(=O)OC(C(=O)NC2CCCCC2)c2ccnc3ccccc23)cc1` (stereo not drawn) [Compound 2], the IC50 in experiment [1] (setting [4]) was found to be 2.64 µM; in experiment [2], 191 µM.

With `Cc1cccc(C)c1NC(=O)C(OC(=O)c1cccc2ccccc12)c1ccnc2ccccc12` (stereo not drawn) [Compound 22], the IC50 was 1.32 µM in experiment [1] (setting [3]) and 254 µM in experiment [2] (Homo sapiens).

Consider `Cc1cccc(C)c1NC(=O)C(OC(=O)c1ccc(Cl)cc1)c1ccnc2ccccc12` (stereo not drawn) [Compound 21], for which the IC50 in experiment [1] (setting [4]) amounted to 4.18 µM.

What is called IC50 is the concentration that inhibits the measured activity by half.
